From PMC7406649, “The rare sugar D-tagatose protects plants from downy mildews and is a safe fungicidal agrochemical” (Communications Biology, 2020)

Tests used:
Assay type in all cases: biochemical
[1] = molecular target: T1, phosphomannose isomerase (LC500563) (Hyaloperonospora arabidopsidis, UniProt A0A7G1GEM8); experiment: HPLC of ABEE-labelled products; settings: 2.5 mM substrate, 10 mM MgCl2, pH 7.4, 30 °C, 6 h; products D-glucose 6-phosphate and D-mannose 6-phosphate
T1 construct: coding region in pColdI, His tag kept (45 kDa), expressed in E. coli SHuffle Express, HisTrap purified; equivalent to Hpa802576 of isolate Emoy2
T1 sequence (A0A7G1GEM8 1-415): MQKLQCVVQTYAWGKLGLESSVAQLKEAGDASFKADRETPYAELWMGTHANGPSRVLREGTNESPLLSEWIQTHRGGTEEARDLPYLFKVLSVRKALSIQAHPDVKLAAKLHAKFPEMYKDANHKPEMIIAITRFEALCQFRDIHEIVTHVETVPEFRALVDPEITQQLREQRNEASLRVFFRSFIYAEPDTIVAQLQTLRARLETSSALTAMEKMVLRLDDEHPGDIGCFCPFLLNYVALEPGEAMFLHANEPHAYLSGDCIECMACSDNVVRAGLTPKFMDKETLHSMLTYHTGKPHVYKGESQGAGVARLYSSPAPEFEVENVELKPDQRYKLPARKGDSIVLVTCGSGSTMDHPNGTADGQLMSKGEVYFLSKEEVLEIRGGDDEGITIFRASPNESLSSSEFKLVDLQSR

[2] = molecular target: T1, phosphomannose isomerase (LC500563); experiment: HPLC of ABEE-labelled products; D-mannose 6-phosphate formation; settings: read-out: % inhibition at 37.5 mM
[3] = molecular target: T1, phosphomannose isomerase (LC500563); experiment: HPLC of ABEE-labelled products; D-glucose 6-phosphate formation; settings: read-out: % inhibition at 37.5 mM
fructokinase (LC500344) = molecular target: T2, fructokinase (LC500344) (Hyaloperonospora arabidopsidis, UniProt A0A7G1GEU5); experiment: Dixon plot; coupled pyruvate kinase/lactate dehydrogenase NADH assay at […] nm; settings: competitive with D-fructose (0.5-2.5 mM); 10-250 mM D-tagatose; 4 mM ATP, 8 mM MgCl2, pH 7.5, 25 °C; D-tagatose is also a substrate
T2 construct: coding region in pGEX5X-1, N-terminal GST tag kept (58 kDa with tag), expressed in E. coli SoluBL21, GSTrap purified; equivalent to Hpa812304 of isolate Emoy2
T2 sequence (A0A7G1GEU5 1-297): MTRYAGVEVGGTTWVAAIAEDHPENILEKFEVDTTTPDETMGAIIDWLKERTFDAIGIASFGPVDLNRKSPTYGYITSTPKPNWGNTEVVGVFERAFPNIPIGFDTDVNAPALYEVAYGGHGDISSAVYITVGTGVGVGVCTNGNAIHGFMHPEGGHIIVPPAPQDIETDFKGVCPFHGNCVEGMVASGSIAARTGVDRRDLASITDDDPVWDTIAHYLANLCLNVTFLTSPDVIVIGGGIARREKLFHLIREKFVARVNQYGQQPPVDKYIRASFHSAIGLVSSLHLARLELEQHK

O=P(O)(O)OC[C@H]1OC(O)(CO)[C@@H](O)[C@@H]1O (stereo partly drawn) [D-fructose 6-phosphate]
HPLC of ABEE-labelled products [1]: both D-glucose 6-phosphate and D-mannose 6-phosphate were detected after the addition of D-fructose 6-phosphate

O=P(O)(O)OC[C@H]1OC(O)(CO)[C@@H](O)[C@H]1O (stereo partly drawn) [D-tagatose 6-phosphate]
inhibition at 37500 µM [2]: 60.8%
inhibition at 37500 µM [3]: 38.2%

OCC1(O)OC[C@@H](O)[C@H](O)[C@@H]1O (stereo partly drawn) [D-tagatose]
Ki (fructokinase (LC500344)): 70 ± 5.14 mM
